Reference: paper PMC9249808, “A novel lipidic peptide with potential to promote balanced effector-regulatory T cell responses” (Scientific Reports, 2022)
Values belong to the molecule of their own block, whether it stands above or below them. Non-standard residues stand in square brackets, D forms with d. Residues, ends and D or L forms follow the SMILES beside them. Gly(decyl) = CCCCCCCCCC[C@H](N)C(=O)O

Experiments:
IL-2 production = settings: cited from earlier work
CD3+ T cell cultures = experiment: Cytokine ELISA on supernatants of isolated CD3+ T cell cultures; type: cell-based, human
Method: CD3^+ T cells were isolated from PBMCs by negative selection using immune-magnetic separation (Stem cell kits), resuspended in complete medium as used for PBMCs at 0.5 × 10^6/mL and plated at a density of 5 × 10^4 per well (100 µL) in 96-well, flat bottom culture plates. CD4^+ and CD8^+ T cell populations were isolated by immunomagnetic separation and resuspended in RPMI-10 at 0.5 × 10^6/mL with a plating density of 0.5 × 10^5 per well. Either the lipidic peptide, IK14004, or IK14000 ([…]) was added to wells at a final volume of 50 µL per well, together with anti-CD3 anti-CD28 coated Dynabeads (ThermoFisher) at a 4:1 cell:bead ratio (1.25 × 10^4/well, 50 µL volume) and cells cultured for 72 h at 37 °C and 5% CO2.
Supernatants were obtained from PBMC and isolated CD3+ T cells cultures to assess production of IL-2, IL-12p70, IL-10 and IFN-γ (ThermoFisher kits) and IL-12p40 (Biolegend). […] ELISA plates were read at 450 nm using an Infinite F50 (Tecan) absorbance reader and Magellan™ reader control and data analysis software. Flow cytometry data was exported as FCS files from Attune™ NxT software and analysed using FlowJo™ software, from which data were tabulated for export to Microsoft Excel. […]
For flow cytometry and ELISA experiments, data from IK14004 and vehicle groups were analysed using parametric statistical procedures. […]

Lck [1] = settings: in vitro; read-out: IC50, inhibition of Lck activity; cited from earlier work
CaMKIV = biological target: T1, CaMKIV (Homo sapiens, UniProt Q16566); experiment: Kinase profiling, CaMKIV; type: biochemical
T1 construct: purchased Eurofins (France), KinaseProfiler service
Method: (§1) Non-cell-based kinase profiling assays were performed by Eurofins (France). All compounds were prepared to 50 × final assay concentration in 100% DMSO. This working stock of the compound was added to assay wells as the first component in the reaction, followed by the remaining components as detailed in the specific assay protocols below. In the standard KinaseProfiler service, there was no pre-incubation step between the compound and the kinase prior to initiation of the reaction. Control wells contained all components of the reaction, except the compound of interest; however, DMSO (at a final concentration of 2%) was included in these wells to control for solvent effects. […] The reference inhibitors for each kinase are indicated in the methods for each kinase assay. […] Kinase activities were assessed in the presence of compounds at a concentration range of 0.003 -10 uM and the following kinases were tested: c-Src, Lck, Jak1, Jak2, Tyk2, CaMKIV and HPK1 (MAP4K1). Reactions between IK14004, substrates and MgAcetate/[γ^33P-ATP] mixes for each respective kinase were stopped by the addition of phosphoric acid and reaction mixtures spotted on P30 filtermats for scintillation according to the detailed methods available from Eurofins. The activities of Lck and c-Src were also assessed in the presence of the unconjugated components of IK14004, i.e., […] […]

JAK1 = biological target: T2, JAK1 (Homo sapiens, UniProt P23458); experiment: Kinase profiling, JAK1; type: biochemical
T2 construct: purchased Eurofins (France), KinaseProfiler service
Method: as §1

Tyk2 = biological target: T3, Tyk2 (Homo sapiens, UniProt P29597); experiment: Kinase profiling, Tyk2; type: biochemical; settings: non-cell-based, [γ-33P-ATP], 2% DMSO, no pre-incubation, Fig. 6i
T3 construct: purchased Eurofins (France), KinaseProfiler service
Method: as §1

HPK1 (MAP4K1) = biological target: T4, HPK1 (MAP4K1) (Homo sapiens, UniProt Q92918); experiment: Kinase profiling, HPK1; type: biochemical
T4 construct: purchased Eurofins (France), KinaseProfiler service
Method: as §1

Lck [2] = experiment: Kinase profiling, Lck; type: biochemical; settings: Eurofins KinaseProfiler, [γ-33P-ATP] scintillation, 0.003-10 uM, 2% DMSO, no pre-incubation, Fig. 6c, 6e
Method: Non-cell-based kinase profiling assays were performed by Eurofins (France). All compounds were prepared to 50 × final assay concentration in 100% DMSO. This working stock of the compound was added to assay wells as the first component in the reaction, followed by the remaining components as detailed in the specific assay protocols below. In the standard KinaseProfiler service, there was no pre-incubation step between the compound and the kinase prior to initiation of the reaction. Control wells contained all components of the reaction, except the compound of interest; however, DMSO (at a final concentration of 2%) was included in these wells to control for solvent effects. […] The reference inhibitors for each kinase are indicated in the methods for each kinase assay. […] Kinase activities were assessed in the presence of compounds at a concentration range of 0.003 -10 uM and the following kinases were tested: c-Src, Lck, Jak1, Jak2, Tyk2, CaMKIV and HPK1 (MAP4K1). Reactions between IK14004, substrates and MgAcetate/[γ^33P-ATP] mixes for each respective kinase were stopped by the addition of phosphoric acid and reaction mixtures spotted on P30 filtermats for scintillation according to the detailed methods available from Eurofins. The activities of Lck and c-Src were also assessed in the presence of the unconjugated components of IK14004, i.e., […] (IK14000) and the dodecanoic acid moiety [(2)Adod]4 (IK00041) and a lipidic peptide containing substituted amino acid residues (IK14DE04).

c-Src = experiment: Kinase profiling, c-Src; type: biochemical; settings: Eurofins KinaseProfiler, [γ-33P-ATP] scintillation, 0.003-10 uM, 2% DMSO, no pre-incubation; Fig. 6d (IK14004 at concentrations below 3 µM), Fig. 6e
Method: as §1

CD40L expression = settings: 48 h, in vitro; cited from earlier work
From the text: An integrated understanding of how IL-2 and TCR co-stimulatory signals combine to control homeostasis in distinct tissue locations is lacking. The effects of IK14004 on cytokine production are shown in the Schematic (Fig. 7) together with putative effects on kinase-mediated signalling pathways involved in production of these cytokines. Maturation of DCs involves CD40L-CD40 interactions dependent upon T helper expression of CD40L[21],[22].

[3] = blank wells, baseline 0% kinase activity remaining

T4 sequence (Q92918 whole entry): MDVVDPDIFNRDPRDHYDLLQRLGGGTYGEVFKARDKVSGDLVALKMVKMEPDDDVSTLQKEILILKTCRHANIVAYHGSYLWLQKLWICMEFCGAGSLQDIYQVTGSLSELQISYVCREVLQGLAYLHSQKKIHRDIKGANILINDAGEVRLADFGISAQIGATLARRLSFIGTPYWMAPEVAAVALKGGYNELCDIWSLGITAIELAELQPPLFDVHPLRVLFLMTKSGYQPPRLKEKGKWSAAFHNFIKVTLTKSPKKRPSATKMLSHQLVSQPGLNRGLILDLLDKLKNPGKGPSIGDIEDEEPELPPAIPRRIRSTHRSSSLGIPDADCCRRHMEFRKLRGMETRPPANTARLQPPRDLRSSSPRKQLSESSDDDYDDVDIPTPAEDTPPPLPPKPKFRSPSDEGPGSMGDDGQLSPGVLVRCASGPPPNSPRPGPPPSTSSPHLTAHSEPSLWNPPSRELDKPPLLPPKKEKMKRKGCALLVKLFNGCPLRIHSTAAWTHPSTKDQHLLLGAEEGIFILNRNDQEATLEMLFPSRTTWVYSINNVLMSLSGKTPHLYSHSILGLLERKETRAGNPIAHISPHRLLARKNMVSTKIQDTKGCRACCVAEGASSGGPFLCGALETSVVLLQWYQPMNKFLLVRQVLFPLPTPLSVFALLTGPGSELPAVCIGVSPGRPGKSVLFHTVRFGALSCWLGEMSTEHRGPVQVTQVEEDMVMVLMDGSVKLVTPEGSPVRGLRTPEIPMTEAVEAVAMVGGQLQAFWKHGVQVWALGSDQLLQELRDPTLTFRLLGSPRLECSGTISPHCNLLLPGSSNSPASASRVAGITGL
T2 sequence (P23458 whole entry): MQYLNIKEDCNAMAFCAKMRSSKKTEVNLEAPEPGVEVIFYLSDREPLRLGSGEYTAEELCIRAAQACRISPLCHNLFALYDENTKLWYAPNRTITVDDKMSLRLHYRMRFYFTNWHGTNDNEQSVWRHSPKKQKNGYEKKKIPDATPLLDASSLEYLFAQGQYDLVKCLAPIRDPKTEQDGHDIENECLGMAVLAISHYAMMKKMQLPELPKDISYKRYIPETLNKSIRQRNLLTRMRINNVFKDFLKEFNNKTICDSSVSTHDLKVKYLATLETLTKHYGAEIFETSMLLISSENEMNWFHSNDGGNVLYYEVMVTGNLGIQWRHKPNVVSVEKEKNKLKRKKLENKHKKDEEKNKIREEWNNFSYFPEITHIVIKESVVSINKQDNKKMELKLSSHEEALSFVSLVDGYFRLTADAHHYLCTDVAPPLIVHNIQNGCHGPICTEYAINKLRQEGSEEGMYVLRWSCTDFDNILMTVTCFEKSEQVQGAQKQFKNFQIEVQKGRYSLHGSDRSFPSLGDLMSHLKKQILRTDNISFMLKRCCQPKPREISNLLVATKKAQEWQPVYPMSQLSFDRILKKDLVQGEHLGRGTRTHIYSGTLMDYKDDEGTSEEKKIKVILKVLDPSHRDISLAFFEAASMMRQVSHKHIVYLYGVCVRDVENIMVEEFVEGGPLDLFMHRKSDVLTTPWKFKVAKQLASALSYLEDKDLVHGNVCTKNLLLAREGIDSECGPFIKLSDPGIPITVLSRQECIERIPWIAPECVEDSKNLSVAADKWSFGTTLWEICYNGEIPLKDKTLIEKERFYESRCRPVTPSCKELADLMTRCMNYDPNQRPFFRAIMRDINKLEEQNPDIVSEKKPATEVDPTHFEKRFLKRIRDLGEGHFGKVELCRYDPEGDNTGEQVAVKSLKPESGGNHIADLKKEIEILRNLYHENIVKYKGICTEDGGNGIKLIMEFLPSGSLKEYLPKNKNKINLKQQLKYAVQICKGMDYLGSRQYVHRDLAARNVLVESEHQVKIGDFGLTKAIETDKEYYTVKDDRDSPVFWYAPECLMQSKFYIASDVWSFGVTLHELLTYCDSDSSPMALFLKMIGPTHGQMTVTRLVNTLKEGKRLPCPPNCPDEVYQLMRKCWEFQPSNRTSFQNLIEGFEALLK
T3 sequence (P29597 whole entry): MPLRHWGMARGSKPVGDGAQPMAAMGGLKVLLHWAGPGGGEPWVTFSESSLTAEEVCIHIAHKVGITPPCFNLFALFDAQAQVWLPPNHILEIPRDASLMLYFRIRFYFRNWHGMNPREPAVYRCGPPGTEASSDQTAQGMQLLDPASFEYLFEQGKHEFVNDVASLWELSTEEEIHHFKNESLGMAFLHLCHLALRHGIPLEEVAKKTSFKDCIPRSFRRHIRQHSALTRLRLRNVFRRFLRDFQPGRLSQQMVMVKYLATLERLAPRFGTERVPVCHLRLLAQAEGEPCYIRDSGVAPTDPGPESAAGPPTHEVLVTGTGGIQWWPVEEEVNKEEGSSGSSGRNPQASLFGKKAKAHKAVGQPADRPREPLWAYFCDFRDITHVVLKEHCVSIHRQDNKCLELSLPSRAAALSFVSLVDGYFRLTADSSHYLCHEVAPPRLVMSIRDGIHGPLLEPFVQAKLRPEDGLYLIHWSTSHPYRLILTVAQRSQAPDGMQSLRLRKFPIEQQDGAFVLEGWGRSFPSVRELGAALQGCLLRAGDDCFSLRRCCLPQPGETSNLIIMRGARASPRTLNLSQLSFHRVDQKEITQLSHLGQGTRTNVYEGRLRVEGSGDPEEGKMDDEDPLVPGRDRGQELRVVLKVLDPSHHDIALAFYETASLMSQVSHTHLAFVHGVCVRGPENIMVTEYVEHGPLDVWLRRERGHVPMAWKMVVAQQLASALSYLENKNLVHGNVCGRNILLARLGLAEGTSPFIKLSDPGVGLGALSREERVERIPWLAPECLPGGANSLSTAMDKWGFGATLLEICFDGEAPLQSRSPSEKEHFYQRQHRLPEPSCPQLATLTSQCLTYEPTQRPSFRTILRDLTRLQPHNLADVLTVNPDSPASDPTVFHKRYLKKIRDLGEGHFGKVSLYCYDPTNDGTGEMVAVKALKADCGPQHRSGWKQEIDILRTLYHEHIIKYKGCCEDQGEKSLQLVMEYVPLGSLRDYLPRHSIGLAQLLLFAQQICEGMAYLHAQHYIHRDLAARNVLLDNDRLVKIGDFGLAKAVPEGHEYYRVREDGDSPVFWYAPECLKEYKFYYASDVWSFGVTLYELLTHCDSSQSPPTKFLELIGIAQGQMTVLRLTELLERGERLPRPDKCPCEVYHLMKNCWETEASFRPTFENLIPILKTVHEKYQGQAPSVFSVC

Molecule: COc1cc(-c2nn([C@H]3CC[C@H](N4CCN(C(C)=O)CC4)CC3)c3ncnc(N)c23)ccc1NC(=O)c1cc2ccccc2n1C [A-770041]
IL-2 production, whole blood (IL-2 production; heparinised whole blood exposed to anti-CD3 plus PMA, ref Stachlewitz and colleagues [66]): inhibition of IL-2 production
IC50 (IL-2 production; read-out: IC50, inhibition of IL-2 production, in vitro): 0.08 µM
IL-2 in supernatant of CD3+ T cell cultures, A-770041 (CD3+ T cell cultures; 0.1 µM in 0.1% DMSO, anti-CD3/anti-CD28, 72 h, ELISA, 7 experimental replicates, paired t-test **P < 0.01, Fig. 6a): induced IL-2 production
IL-2 level relative to IK14004 (CD3+ T cell cultures; A-770041 0.1 µM versus IK14004 (0.16 uM), 72 h, Fig. 6a vs 1f): much greater level than in the presence of IK14004
IC50 (Lck [1]): 0.147 µM

IC50 (CaMKIV; non-cell-based, [γ-33P-ATP], 2% DMSO, no pre-incubation, Fig. 6h): 3 µM
IC50 (JAK1; non-cell-based, [γ-33P-ATP], 2% DMSO, no pre-incubation, Fig. 6i): 3 µM
IC50 (Tyk2): 1 µM
IC50 (HPK1 (MAP4K1); non-cell-based, [γ-33P-ATP], 2% DMSO, no pre-incubation, Fig. 6f): ~1 µM
Molecule: CCCCCCCCCC[C@H](NC(=O)[C@H](CCCCCCCCCC)NC(=O)[C@H](CCCCCCCCCC)NC(=O)[C@H](CCCCCCCCCC)NC(=O)[C@H](CCCNC(=N)N)NC(=O)[C@H](Cc1ccc(O)cc1)NC(=O)[C@H](CC(C)C)NC(=O)[C@@H]1CCCN1C(=O)[C@H](CC(N)=O)NC(=O)[C@H](CCCCN)NC(=O)[C@H](C)NC(=O)[C@H](CCCCN)NC(=O)[C@H](CO)NC(=O)[C@@H](N)CCCNC(=N)N)C(N)=O [IK14004] (H-RSKAKNPLYR[Gly(decyl)][Gly(decyl)][Gly(decyl)][Gly(decyl)]-NH2)

Molecule: CN[C@@H]1C[C@H]2O[C@@](C)([C@@H]1OC)n1c3ccccc3c3c4c(c5c6ccccc6n2c5c31)C(=O)NC4 [staurosporine, reference compound]
CaMKIV activity, reference inhibitor (CaMKIV; [3]): abolished kinase activity
JAK1 activity, reference inhibitor (JAK1; [3]): abolished kinase activity
HPK1 activity, reference inhibitor (HPK1 (MAP4K1); [3]): abolished kinase activity

Lck activity (Lck [2]): abolished the effects of IK14004
c-Src activity (c-Src): abolished the effects of IK14004
Molecule: DSEAENPLYD [IK14DE04]

Molecule: [(2)Adod]4 [IK00041]
Lck activity (Lck [2]): neither IK14000 nor IK00041 had an effect

B1: daclizumab: a humanised anti-CD25 mAb (antibody, chains of the INN, looked up, V domains shown)
VH: QVQLVQSGAEVKKPGSSVKVSCKASGYTFTSYRMHWVRQAPGQGLEWIGYINPSTGYTEYNQKFKDKATITADESTNTAYMELSSLRSEDTAVYYCARGGGVFDYWGQGTLVTVSS
VL: DIQMTQSPSTLSASVGDRVTITCSASSSISYMHWYQQKPGKAPKLLIYTTSNLASGVPARFSGSGSGTEFTLTISSLQPDDFATYYCHQRSTYPLTFGQGTKVEVK
CD40L expression at later time points (CD40L expression): inhibitable
